The text below walks through data of US10323018B2 (Millennium Pharmaceuticals, Inc., priority 2015, dated 2019).

One experiment addresses hNAMPT protein (Homo sapiens (Human), UniProt P43490). The experiment can be described thus: NAMPT enzyme assay (TR-FRET/HTRF with BodiPY ligand). It is filed as binding. The settings on record: for inhibition at 1 µM: read-out: Percent Inhibition; for IC50: NAMPT inhibition, IC50 range class. The essentials: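 His-tagged hNAMPT with anti-6His-Tb, incubated with compound and BodiPY ligand for 1 h at rt in the dark, in Tris-HCl pH 7.5 buffer with DTT, NaCl, MgCl2 and Tween 20. TR-FRET measured with 320 nm excitation as the 520/486 nm emission ratio. IC50 fitted relative to DMSO controls.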
On the technique in general: In TR-FRET formats the signal depends on donor and acceptor labels being close together.

Another experiment relates to PC3 cells. The experiment can be described thus: PC3 growth inhibition (Cell-titer glo, 72 hours). It is filed as cell-based. Conditions: Homo sapiens, PC-3, 72 h, read-out: Percent Viability, PC3 cells, compound concentration 1.667 μM, 72 hours. The essentials: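 PC3 cells grown in RPMI1640 plated at 8×10^4 cells/ml, incubated overnight, then exposed to compound diluted in AIM serum-free medium for 72 h at 37 °C, 5% CO2. Luminescence by CellTiter-Glo relative to DMSO controls; % viability at single concentration, GI50 or LD50 from concentration-response curves.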

Where [1] appears, read: NAMPT inhibition at compound concentration 1 μM.

Read-outs that look alike come from different tables or passages of the source. A value given as a limit tells only on which side of the number the result lay.

Chain of hNAMPT protein (P43490 whole entry): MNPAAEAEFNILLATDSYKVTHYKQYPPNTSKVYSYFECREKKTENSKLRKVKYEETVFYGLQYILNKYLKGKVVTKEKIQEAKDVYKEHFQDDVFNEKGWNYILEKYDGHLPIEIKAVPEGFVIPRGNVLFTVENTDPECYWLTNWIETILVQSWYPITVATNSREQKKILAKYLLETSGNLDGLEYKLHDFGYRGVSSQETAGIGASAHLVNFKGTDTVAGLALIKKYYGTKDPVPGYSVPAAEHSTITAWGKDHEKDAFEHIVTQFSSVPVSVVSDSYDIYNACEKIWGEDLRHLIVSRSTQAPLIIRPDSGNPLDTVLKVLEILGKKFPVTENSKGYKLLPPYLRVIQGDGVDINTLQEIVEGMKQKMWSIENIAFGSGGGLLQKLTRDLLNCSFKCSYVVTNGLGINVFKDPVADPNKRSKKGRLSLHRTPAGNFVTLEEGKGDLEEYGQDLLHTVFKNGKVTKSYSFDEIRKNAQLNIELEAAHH

Consider `CCOc1cc(-c2ccc(F)cc2)nc2cc(C(=O)NCC(F)(F)Cc3nnc[nH]3)ccc12` [Compound I-91, N-[2,2-difluoro-3-(4H-1,2,4-triazol-3-yl)propyl]-4-ethoxy-2-(4-fluorophenyl)quinoline-7-carboxamide], for which, at hNAMPT protein (setting [1]), the inhibition (as a rule, the relative decrease from the control value, in per cent) at 1 µM came out at 80%. For the same compound, the IC50 (as a rule, the concentration needed to halve the response being measured) against hNAMPT protein was more than 100 nM. In addition, in the experiment with PC3 cells, the viability at 1.667 µM came out at 2%.
In the same order, the values of `CCOc1cc(-c2ccnc(OC)c2)nc2cc(C(=O)NCCc3[nH]nnc3C)ccc12` [Compound I-83, 4-ethoxy-2-(2-methoxypyridin-4-yl)-N-[2-(4-methyl-1H-1,2,3-triazol-5-yl)ethyl]quinoline-7-carboxamide] are 96%, 10 to 50 nM and 2%.
On to `CCOc1cc(-c2ccn(C)c(=O)c2)nc2cc(C(=O)NCCCc3cnn[nH]3)ccc12` [Compound I-95, 4-ethoxy-2-(1-methyl-2-oxo-1,2-dihydropyridin-4-yl)-N-[3-(1H-1,2,3-triazol-5-yl)propyl]quinoline-7-carboxamide], for which, at hNAMPT protein (setting [1]), the inhibition at 1 µM was more than 99%. The IC50 against hNAMPT protein was less than 10 nM. For the same compound, the viability at 1.667 µM in the experiment on PC3 cells amounted to 1%.
In the same order, the values of `CCOc1cc(-c2ccc(=O)n(C)c2)nc2cc(C(=O)NCCCc3nnc[nH]3)ccc12` [Compound I-122, 4-ethoxy-2-(1-methyl-6-oxo-1,6-dihydropyridin-3-yl)-N-[3-(4H-1,2,4-triazol-3-yl)propyl]quinoline-7-carboxamide] are more than 99%, 10 to 50 nM and 2%.
In the same order, the values of `CCOc1cc(-c2cnccc2OC)nc2cc(C(=O)NCCCc3nnc[nH]3)ccc12` [Compound I-212, 4-ethoxy-2-(4-methoxypyridin-3-yl)-N-[3-(4H-1,2,4-triazol-3-yl)propyl]quinoline-7-carboxamide] are 69%, more than 100 nM and 2%.
In the same order, the values of `CCOc1cc(-c2ccnc(C)c2)nc2cc(C(=O)NCCCc3ccn[nH]3)ccc12` [Compound I-149, 4-ethoxy-2-(2-methylpyridin-4-yl)-N-[3-(1H-pyrazol-5-yl)propyl]quinoline-7-carboxamide] are 96%, 10 to 50 nM and 2%.
On to `COc1cc(-c2nc(-c3ccc(F)cc3)nc3cc(C(=O)NCCCc4nnc[nH]4)ccc23)ccn1` [Compound I-197, 2-(4-fluorophenyl)-4-(2-methoxypyridin-4-yl)-N-[3-(4H-1,2,4-triazol-3-yl)propyl]quinazoline-7-carboxamide], for which, at hNAMPT protein (setting [1]), the inhibition at 1 µM was found to be 97%. Moreover, the IC50 against hNAMPT protein lay in the range of 10 to 50 nM. Besides, the viability at 1.667 µM in the experiment with PC3 cells stood at 3%.
In the same order, the values of `CCOc1cc(-c2cccnc2OC)nc2cc(C(=O)NCCc3cnn[nH]3)ccc12` [Compound I-190, 4-ethoxy-2-(2-methoxypyridin-3-yl)-N-[2-(1H-1,2,3-triazol-5-yl)ethyl]quinoline-7-carboxamide] are 94%, 50 to 100 nM and 5%.
In the same order, the values of `CCOc1cc(-c2cncc(C)c2)nc2cc(C(=O)NCCCc3nnc[nH]3)ccc12` [Compound I-127, 4-ethoxy-2-(5-methylpyridin-3-yl)-N-[3-(4H-1,2,4-triazol-3-yl)propyl]quinoline-7-carboxamide] are 87%, 50 to 100 nM and 2%.
`CCOc1cc(-c2cccnc2OC)nc2cc(C(=O)NCc3nc4ccncc4[nH]3)ccc12` [Compound I-192, 4-ethoxy-N-(3H-imidazo[4,5-c]pyridin-2-ylmethyl)-2-(2-methoxypyridin-3-yl)quinoline-7-carboxamide]: the inhibition at 1 µM at hNAMPT protein (setting [1]) is 100%. The IC50 on hNAMPT protein was less than 10 nM. In addition, the viability at 1.667 µM in the experiment on PC3 cells came to 3%.
With `CCOc1cc(-c2cccnc2OC)nc2cc(C(=O)NCCc3nnc[nH]3)ccc12` [Compound I-180, 4-ethoxy-2-(2-methoxypyridin-3-yl)-N-[2-(4H-1,2,4-triazol-3-yl)ethyl]quinoline-7-carboxamide], at hNAMPT protein (setting [1]), the inhibition at 1 µM is 83%. The compound further returned an IC50 against hNAMPT protein of more than 100 nM. Further, in the experiment with PC3 cells, the viability at 1.667 µM amounted to 2%.
In the same order, the values of `CCOc1cc(-c2ccc(F)cc2)nc2cc(C(=O)NCCCc3cc[nH]n3)ccc12` [Compound I-204, 4-ethoxy-2-(4-fluorophenyl)-N-[3-(1H-pyrazol-3-yl)propyl]quinoline-7-carboxamide] are 100%, less than 10 nM and 2%.
In the same order, the values of `CCOc1cc(-c2ccnc(OC)c2Cl)nc2cc(C(=O)NCCCc3nnc[nH]3)ccc12` [Compound I-166, 2-(3-chloro-2-methoxypyridin-4-yl)-4-ethoxy-N-[3-(4H-1,2,4-triazol-3-yl)propyl]quinoline-7-carboxamide] are 94%, 10 to 50 nM and 2%.
In the same order, the values of `CCCc1cc(-c2ccc(F)cc2)nc2cc(C(=O)NCCCc3cc[nH]n3)ccc12` [Compound I-147, 2-(4-fluorophenyl)-4-propyl-N-[3-(1H-pyrazol-3-yl)propyl]quinoline-7-carboxamide] are 92%, 50 to 100 nM and 2%.
On to `CCOc1cc(-c2ccc(=O)n(C)c2)nc2cc(C(=O)NCCCc3cnn[nH]3)ccc12` [Compound I-96, 4-ethoxy-2-(1-methyl-6-oxo-1,6-dihydropyridin-3-yl)-N-[3-(1H-1,2,3-triazol-5-yl)propyl]quinoline-7-carboxamide], for which, on hNAMPT protein (setting [1]), the inhibition at 1 µM was more than 99%. This compound yielded an IC50 against hNAMPT protein of less than 10 nM. In the experiment on PC3 cells, the viability at 1.667 µM was 1%.
In the same order, the values of `CCOc1cc(-c2ccc(Cl)s2)nc2cc(C(=O)NCCc3nnc[nH]3)ccc12` [Compound I-177, 2-(5-chloro-2-thienyl)-4-ethoxy-N-[2-(4H-1,2,4-triazol-3-yl)ethyl]quinoline-7-carboxamide] are 97%, 10 to 50 nM and 3%.
In the same order, the values of `CCOc1nc(-c2ccc(F)cc2)nc2cc(C(=O)NCCCc3ncc[nH]3)ccc12` [Compound I-32, 4-ethoxy-2-(4-fluorophenyl)-N-[3-(1H-imidazol-2-yl)propyl]quinazoline-7-carboxamide] are more than 99%, less than 10 nM and 2%.
As to `CCOc1cc(-c2ccnc(OC)c2)nc2cc(C(=O)NCCCc3nnc[nH]3)ccc12` [Compound I-114, 4-ethoxy-2-(2-methoxypyridin-4-yl)-N-[3-(4H-1,2,4-triazol-3-yl)propyl]quinoline-7-carboxamide], the inhibition at 1 µM on hNAMPT protein (setting [1]) was found to be 97%. The compound also registered an IC50 against hNAMPT protein of 10 to 50 nM. For the same compound, in the experiment on PC3 cells, the viability at 1.667 µM came out at 2%.
In the same order, the values of `CCOc1nc(-c2ccc(Cl)s2)nc2cc(C(=O)NCCCc3ncc[nH]3)ccc12` [Compound I-35, 2-(5-chloro-2-thienyl)-4-ethoxy-N-[3-(1H-imidazol-2-yl)propyl]quinazoline-7-carboxamide] are more than 99%, less than 10 nM and 1%.
In the same order, the values of `CCOc1cc(-c2ccnc(OC)c2F)nc2cc(C(=O)NCCCc3nnc[nH]3)ccc12` [Compound I-90, 4-ethoxy-2-(3-fluoro-2-methoxypyridin-4-yl)-N-[3-(4H-1,2,4-triazol-3-yl)propyl]quinoline-7-carboxamide] are 97%, 10 to 50 nM and 1%.
In the same order, the values of `CCOc1cc(-c2ccnc(C)c2)nc2cc(C(=O)NCCc3c[nH]nc3C)ccc12` [Compound I-146, 4-ethoxy-N-[2-(3-methyl-1H-pyrazol-4-yl)ethyl]-2-(2-methylpyridin-4-yl)quinoline-7-carboxamide] are 87%, 50 to 100 nM and 2%.
`CCOc1cc(-c2ccc(F)cc2)nc2cc(C(=O)NCCCc3nccs3)ccc12` [Compound I-44, 4-ethoxy-2-(4-fluorophenyl)-N-[3-(1,3-thiazol-2-yl)propyl]quinoline-7-carboxamide]: the inhibition at 1 µM at hNAMPT protein (setting [1]) was 97%. The same compound had a half-maximal inhibitory concentration (IC50) against hNAMPT protein of less than 10 nM. Besides, in the experiment with PC3 cells, the viability at 1.667 µM is 58%.
In the same order, the values of `CCOc1cc(-c2ccnc(C)c2)nc2cc(C(=O)NCCCc3nnc[nH]3)ccc12` [Compound I-202, 4-ethoxy-2-(2-methylpyridin-4-yl)-N-[3-(4H-1,2,4-triazol-3-yl)propyl]quinoline-7-carboxamide] are 98%, 10 to 50 nM and 1%.
In the same order, the values of `CCOc1cc(-c2cc(F)ccc2OC)nc2cc(C(=O)NCCCc3nnc[nH]3)ccc12` [Compound I-199, 4-ethoxy-2-(5-fluoro-2-methoxyphenyl)-N-[3-(4H-1,2,4-triazol-3-yl)propyl]quinoline-7-carboxamide] are 100%, 10 to 50 nM and 2%.
On to `COCc1nc(-c2ccc(Cl)cc2)nc2cc(C(=O)NCCCc3ncc[nH]3)ccc12` [Compound I-25, 2-(4-chlorophenyl)-N-[3-(1H-imidazol-2-yl)propyl]-4-(methoxymethyl)quinazoline-7-carboxamide], for which, on hNAMPT protein, the IC50 is less than 10 nM and the inhibition at 1 µM was 99%. Besides, the viability at 1.667 µM in the experiment on PC3 cells worked out at 0%.
